Data from US10597388B2, “Pyridazinone herbicides” (FMC CORPORATION, priority 2014, dated 2020).
Read-outs that look alike come from different tables or passages of the source.

Assays:
Format in all cases: in vivo
[1] = system: sedge, umbrella (small-flower umbrella sedge, Cyperus difformis); test: Test B flooded paddy test; conditions: 250 g ai/ha, Flood, visual rating on scale of 0 to 100 where 0 is no effect and 100 is complete control, 13 to 15 d after treatment; for pest or weed control at 250 g/ha: Cyperus difformis, 360 h, read-out: Plant response rating, Sedge, Umbrella
Summary of the method: (§1)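 Plants at the 2-leaf stage were flooded to 3 cm above soil, and test compounds were applied directly into the paddy water, which was held at that depth throughout. After 13 to 15 d in a greenhouse, injury was rated visually against untreated controls on a 0–100 scale (0 no effect, 100 complete control).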

[2] = system: rice (Oryza sativa); test: Test B flooded paddy test; conditions: 250 g ai/ha, Flood, visual rating on scale of 0 to 100 where 0 is no effect and 100 is complete control, 13 to 15 d after treatment; for plant injury at 250 g/ha: Oryza sativa, 360 h, read-out: Plant response rating, Rice
Summary of the method: as §1

[3] = system: barnyardgrass (Echinochloa crus-galli); test: Test B flooded paddy test; conditions: 250 g ai/ha, Flood, visual rating on scale of 0 to 100 where 0 is no effect and 100 is complete control, 13 to 15 d after treatment; for pest or weed control at 250 g/ha: Echinochloa crus-galli, 360 h, read-out: Plant response rating, Barnyardgrass
Summary of the method: as §1

[4] = system: ducksalad (Heteranthera limosa); test: Test B flooded paddy test; conditions: 250 g ai/ha, Flood, visual rating on scale of 0 to 100 where 0 is no effect and 100 is complete control, 13 to 15 d after treatment; for pest or weed control at 250 g/ha: Heteranthera limosa, 360 h, read-out: Plant response rating, Ducksalad
Summary of the method: as §1

[5] = system: barnyardgrass (Echinochloa crus-galli); test: Test A greenhouse herbicide test, pre- and postemergence; conditions: for pest or weed control at 125 g/ha / pest or weed control at 500 g/ha: Echinochloa crus-galli, 240 h; for pest or weed control at 500 g/ha: 0 to 100 scale
Summary of the method: (§2)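 Seeds sown in loam–sand blend got a preemergence directed soil spray of compound in non-phytotoxic solvent with surfactant. Postemergence treatment was given at 2–10 cm, one- to two-leaf stage. After ~10 d in greenhouse, injury was rated visually vs untreated controls, 0 (no effect) to 100 (complete control).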

[6] = system: corn (Zea mays); test: as above; conditions: for Corn plant response rating (crop injury, 0 = no effect, 100 = complete kill) at 125 g/ha / plant injury at 500 g/ha: post-emergence; for Corn plant response rating (crop injury, 0 = no effect, 100 = complete kill) at 125 g/ha / plant injury at 500 g/ha / Plant response rating, Corn: Postemergence; for plant injury at 500 g/ha: 0 is no effect, 100 is complete control
Summary of the method: as §2

[7] = system: ryegrass, Italian (Italian ryegrass, Lolium multiflorum); test: as above; conditions: for pest or weed control at 125 g/ha / pest or weed control at 500 g/ha: Lolium multiflorum, 240 h; for pest or weed control at 500 g/ha: 0 to 100 scale
Summary of the method: as §2

[8] = system: galium (catchweed bedstraw, Galium aparine); test: Test A greenhouse herbicide test, postemergence; conditions: for pest or weed control at 125 g/ha / pest or weed control at 500 g/ha: Galium, post-emergence, 240 h; for pest or weed control at 125 g/ha: read-out: Plant response rating, Galium; for pest or weed control at 500 g/ha: 0 to 100 scale, 0 is no effect, 100 is complete control, read-out: Galium plant response rating
Summary of the method: (§3)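 Greenhouse postemergence test: formulated chemicals sprayed on one- to two-leaf plants (2 to 10 cm), grown in loam soil blended with sand. Injury assessed visually about 10 d later against untreated controls, scored 0 (no effect) to 100 (complete control).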

[9] = system: blackgrass (Alopecurus myosuroides); test: Test A greenhouse herbicide test, postemergence; conditions: for pest or weed control at 125 g/ha / pest or weed control at 500 g/ha: Alopecurus myosuroides, post-emergence, 240 h; for pest or weed control at 125 g/ha: read-out: Plant response rating, Blackgrass; for pest or weed control at 500 g/ha: 0 to 100 scale, 0 is no effect, 100 is complete control, read-out: Blackgrass plant response rating
Summary of the method: as §3

[10] = post-emergence, Postemergence, 125 g ai/ha, visual rating after approx. 10 d, 0 to 100 scale (0 no effect, 100 complete control), read-out: Plant response rating, Barnyardgrass
[11] = post-emergence, Postemergence, 500 g ai/ha, 0 is no effect, 100 is complete control, read-out: Barnyardgrass plant response rating
[12] = pre-emergence, Preemergence, 125 g ai/ha, 0 to 100 scale where 0 is no effect and 100 is complete control, read-out: Barnyardgrass plant response rating
[13] = pre-emergence, Preemergence, 500 g ai/ha, 0 no effect, 100 complete control, read-out: Plant response rating, Barnyardgrass
[14] = Zea mays, 240 h, 125 g ai/ha, visual rating after approx. 10 d, 0 to 100 scale (0 no effect, 100 complete control)
[15] = Zea mays, 240 h, 500 g ai/ha, 0 to 100 scale, read-out: Corn plant response rating
[16] = post-emergence, Postemergence, 125 g ai/ha, visual rating after approx. 10 d, 0 to 100 scale (0 no effect, 100 complete control), read-out: Plant response rating, Ryegrass, Italian
[17] = post-emergence, Postemergence, 500 g ai/ha, 0 is no effect, 100 is complete control, read-out: Ryegrass, Italian plant response rating
[18] = pre-emergence, Preemergence, 125 g ai/ha, 0 to 100 scale where 0 is no effect and 100 is complete control, read-out: Ryegrass, Italian plant response rating
[19] = pre-emergence, Preemergence, 500 g ai/ha, 0 no effect, 100 complete control, read-out: Plant response rating, Ryegrass, Italian
[20] = 125 g ai/ha, visual rating after approx. 10 d, 0 to 100 scale (0 no effect, 100 complete control)
[21] = Postemergence, 125 g ai/ha, 0 to 100 scale where 0 is no effect and 100 is complete control
[22] = Postemergence, 500 g ai/ha, visual rating after approx. 10 d, 0 to 100 scale (0 no effect, 100 complete control)
[23] = Preemergence, 125 g ai/ha, 0 to 100 scale where 0 is no effect and 100 is complete control
[24] = Preemergence, 500 g ai/ha, 0 to 100 scale where 0 is no effect and 100 is complete control
[25] = 125 g ai/ha, 0 to 100 scale where 0 is no effect and 100 is complete control
[26] = 500 g ai/ha, visual rating after approx. 10 d, 0 to 100 scale (0 no effect, 100 complete control)

In the case of `Cc1nn(C)c(=O)c(-c2c(C)oc3cccc(C)c23)c1O` [Compound 8, 4-(2,4-dimethyl-3-benzofuranyl)-5-hydroxy-2,6-dimethyl-3(2H)-pyridazinone], the pest or weed control at 250 g/ha [1] is reported as 70%, the plant injury at 250 g/ha [2] is reported as 0% and the pest or weed control at 250 g/ha [3] is reported as 30%. The pest or weed control at 250 g/ha [4] was 20%, the pest or weed control at 125 g/ha [5, 10] was 0% and the pest or weed control at 500 g/ha [5, 11] was 0%. It also gave a pest or weed control at 125 g/ha [5, 12] of 0%, a pest or weed control at 500 g/ha [5, 13] of 0% and a Corn plant response rating (crop injury, 0 = no effect, 100 = complete kill) at 125 g/ha [6, 14] of 0%. It also gave a plant injury at 500 g/ha [6, 15] of 0%, a plant injury at 125 g/ha ([6]; Zea mays, pre-emergence, 240 h, Preemergence, 125 g ai/ha, 0 to 100 scale where 0 is no effect and 100 is complete control, read-out: Corn plant response rating) of 0% and a Corn plant response rating (crop injury, 0 = no effect, 100 = complete kill) at 500 g/ha ([6]; Zea mays, pre-emergence, 240 h, Preemergence, 500 g ai/ha, 0 to 100 scale, 0 no effect, 100 complete control) of 0%.

In the case of `Cc1ccc2oc(C)c(-c3c(OC(=O)C(C)(C)C)c(C)nn(C)c3=O)c2c1` [Compound 17, 5-(2,5-dimethyl-3-benzofuranyl)-1,6-dihydro-1,3-dimethyl-6-oxo-4-pyridazinyl 2,2-dimethylpropanoate], the pest or weed control at 250 g/ha [1] is reported as 0%, the plant injury at 250 g/ha [2] is reported as 0% and the pest or weed control at 250 g/ha [3] is reported as 0%. The pest or weed control at 250 g/ha [4] was 0%, the pest or weed control at 125 g/ha [5, 10] was 0% and the pest or weed control at 500 g/ha [5, 11] was 0%. It also gave a pest or weed control at 125 g/ha [5, 12] of 0%, a pest or weed control at 500 g/ha [5, 13] of 0% and a pest or weed control at 125 g/ha [7, 16] of 50%. For the same compound, the pest or weed control at 500 g/ha [7, 17] was 60%, the pest or weed control at 125 g/ha [7, 18] was 10% and the pest or weed control at 500 g/ha [7, 19] was 40%. The Corn plant response rating (crop injury, 0 = no effect, 100 = complete kill) at 125 g/ha [6, 14] was 0%, the plant injury at 500 g/ha [6, 15] was 0% and the pest or weed control at 125 g/ha [8, 20] was 50%. The pest or weed control at 500 g/ha ([8]; 500 g ai/ha) was 60%, the pest or weed control at 125 g/ha [9, 20] was 10% and the pest or weed control at 500 g/ha ([9]; 500 g ai/ha) was 40%.

With `Cc1cc(C)c2oc(C)c(-c3c(OC(=O)C(C)(C)C)c(C)nn(C)c3=O)c2c1` [Compound 18, 1,6-dihydro-1,3-dimethyl-6-oxo-5-(2,5,7-trimethyl-3-benzofuranyl)-4-pyridazinyl 2,2-dimethylpropanoate] the pest or weed control at 250 g/ha [1] was 0%, the plant injury at 250 g/ha [2] was 0% and the pest or weed control at 250 g/ha [3] was 0%. For the same compound, the pest or weed control at 250 g/ha [4] was 30%, the pest or weed control at 125 g/ha [5, 10] was 0% and the pest or weed control at 500 g/ha [5, 11] was 40%. It also gave a pest or weed control at 125 g/ha [5, 12] of 0%, a pest or weed control at 500 g/ha [5, 13] of 0% and a pest or weed control at 125 g/ha [7, 16] of 10%. The pest or weed control at 500 g/ha [7, 17] was 50%, the pest or weed control at 125 g/ha [7, 18] was 0% and the pest or weed control at 500 g/ha [7, 19] was 20%. The Corn plant response rating (crop injury, 0 = no effect, 100 = complete kill) at 125 g/ha [6, 14] was 0%, the plant injury at 500 g/ha [6, 15] was 20% and the pest or weed control at 125 g/ha [8, 20] was 40%. It also gave a pest or weed control at 500 g/ha ([8]; 500 g ai/ha) of 60%, a pest or weed control at 125 g/ha [9, 20] of 0% and a pest or weed control at 500 g/ha ([9]; 500 g ai/ha) of 20%.

`CC(=O)Oc1c(Cl)nn(C)c(=O)c1-c1c(C)sc2ccc(Cl)cc12` [Compound 116] was tested, and the “Plant response rating, Sedge, Umbrella” value [1] was 70, the “Plant response rating, Rice” value [2] was 0 and the “Plant response rating, Barnyardgrass” value [3] was 0. The “Plant response rating, Ducksalad” value [4] was 50, the “Plant response rating, Barnyardgrass” value [5, 21] was 20 and the “Plant response rating, Barnyardgrass” value [5, 22] was 90. For the same compound, the “Barnyardgrass plant response rating” value [5, 23] was 70, the “Plant response rating, Barnyardgrass” value [5, 24] was 100 and the “Plant response rating, Ryegrass, Italian” value [7, 21] was 90. For the same compound, the “Plant response rating, Ryegrass, Italian” value [7, 22] was 100, the “Ryegrass, Italian plant response rating” value [7, 23] was 80 and the “Plant response rating, Ryegrass, Italian” value [7, 24] was 100. The “Plant response rating, Corn” value [6, 25] was 0, the “Plant response rating, Corn” value [6, 26] was 30 and the “Plant response rating, Galium” value [8, 25] was 70. For the same compound, the “Plant response rating, Galium” value [8, 26] was 100, the “Plant response rating, Blackgrass” value [9, 25] was 30 and the “Plant response rating, Blackgrass” value [9, 26] was 70.

For `CCC(=O)Oc1c(OC)nn(C)c(=O)c1-c1c(C)sc2ccc(Cl)cc12` [Compound 131], the “Plant response rating, Sedge, Umbrella” value [1] was 0, the “Plant response rating, Rice” value [2] was 0 and the “Plant response rating, Barnyardgrass” value [3] was 0. The “Plant response rating, Ducksalad” value [4] was 0, the “Plant response rating, Barnyardgrass” value [5, 21] was 0 and the “Plant response rating, Barnyardgrass” value [5, 22] was 20. The “Barnyardgrass plant response rating” value [5, 23] was 0, the “Plant response rating, Barnyardgrass” value [5, 24] was 40 and the “Plant response rating, Ryegrass, Italian” value [7, 21] was 90. For the same compound, the “Plant response rating, Ryegrass, Italian” value [7, 22] was 90, the “Ryegrass, Italian plant response rating” value [7, 23] was 90 and the “Plant response rating, Ryegrass, Italian” value [7, 24] was 90. The “Plant response rating, Corn” value [6, 25] was 0, the “Plant response rating, Corn” value [6, 26] was 10 and the “Plant response rating, Galium” value [8, 25] was 70. The “Plant response rating, Galium” value [8, 26] was 100, the “Plant response rating, Blackgrass” value [9, 25] was 30 and the “Plant response rating, Blackgrass” value [9, 26] was 50.
